A short description of the series: Plasma octreotide levels by RIA. Format: in vivo, human.

Results on 1 compound are retold here after article PMC2062954, “Microencapsulated octreotide pamoate in advanced gastrointestinal and pancreatic cancer: a phase I study” (British Journal of Cancer, 1998).

Procedure: Norway Summary Fourteen patients suffering from advanced colorectal (n = 7), pancreatic (n = 4) or gastric (n = 3) carcinomas received treatment with microencapsulated octreotide pamoate 90 mg i.m. every 4 weeks (n = 4), 160 mg i.m. every 4 weeks (n = 4) or 160 mg i.m. every 2 weeks (n = 6). […] In this study we evaluate the tolerability. clinical effects, pharmacokinetics and effects on plasma IGF-I and -II of a new microencapsulated formulation of octreotide pamoate in patients suffering from gastrointestinal and pancreatic carci- nomas. […] Thus. apart from deter- mining plasma IGF-I and -HI together with IGFBP-1 and -3 with radioimmunoassay (RIA). we measured IGFBPs using Western ligand blotting and the functional status of IGFBP-3 using immunoblotting. […] PATIENTS AND METHODS Patients Fourteen patients (eight men and six A-omen) with progressive locally advanced and/or metastatic adenocarcinomas of abdominal origin were studied (Table 1). Any other svstemic anti-cancer therapy had been terminated at least 4 weeks before inclusion in the study.

For `C[C@@H](O)[C@@H]1NC(=O)[C@H](CCCCN)NC(=O)[C@@H](Cc2c[nH]c3ccccc23)NC(=O)[C@H](Cc2ccccc2)NC(=O)[C@@H](NC(=O)[C@H](N)Cc2ccccc2)CSSC[C@@H](C(=O)N[C@H](CO)[C@@H](C)O)NC1=O` [octreotide], under “all cohorts, i.m. depot, range, generally two to five times higher, data not shown”, the “ratio of peak octreotide level at first day of injection to plasma level just before the next injection” value is given as 2.2-9.9. Further, the “lowest plasma level of octreotide observed at any time during treatment” value (individual patients, all cohorts, RIA) turned out to be 3.4 ng/mL. Further, the “highest plasma octreotide level” value (one patient in cohort 3 (160 mg i.m. every 2 weeks), long-term treatment > 6 months, at day 13, subsequent gradual decline) is 98.9 ng/mL.
